Test results published in patent US5703070A, “Indole, indazole and benzisoxazole compounds” (Adir et Compagnie, priority 1995, dated 1997).
Like-named read-outs stand apart in the source and are kept apart here.

Key:
5-HT1A receptors = 5-HT1A receptors (Rattus norvegicus, UniProt P19327); assay: biochemical; type: binding; conditions: for D2 /5-HT1A: ratio of Ki values D2 / 5-HT1A
Protocol: (§1) The interaction of these compounds with various receptors was determined by using conventional binding studies, such as those described by M. J. Millan et at. […] The affinities of the compounds are expressed in Ki.

5-HT2C receptors [1] = biological target: T1, 5-HT2C receptors (Sus scrofa, UniProt K7GSR7); assay: biochemical; type: binding; conditions: Receptor profile Ki, 5-HT2C
T1 construct: from tissue; host or cells: pig choroid plexus (own knowledge of the cited method)
T1 sequence (K7GSR7 1-457): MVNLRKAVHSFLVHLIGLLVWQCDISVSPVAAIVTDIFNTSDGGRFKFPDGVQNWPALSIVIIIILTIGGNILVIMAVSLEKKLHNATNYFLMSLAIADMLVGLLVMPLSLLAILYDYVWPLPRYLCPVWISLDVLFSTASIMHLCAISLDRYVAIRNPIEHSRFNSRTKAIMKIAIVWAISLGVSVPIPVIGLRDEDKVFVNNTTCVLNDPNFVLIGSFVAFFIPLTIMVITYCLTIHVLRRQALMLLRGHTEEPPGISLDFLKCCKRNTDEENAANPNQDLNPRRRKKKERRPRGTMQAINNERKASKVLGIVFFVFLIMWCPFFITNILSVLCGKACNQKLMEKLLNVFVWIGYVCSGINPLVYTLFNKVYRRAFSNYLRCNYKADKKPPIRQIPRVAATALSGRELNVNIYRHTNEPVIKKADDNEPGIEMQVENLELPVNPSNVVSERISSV
Protocol: as §1

5-HT2C receptors [2] = assay: biochemical; type: binding; conditions: ratio of Ki values D2 / 5-HT2C
Protocol: as §1

D2 receptors = biological target: T2, D2 receptors (Rattus norvegicus, UniProt P61169); assay: biochemical; type: binding
T2 construct: from tissue; host or cells: rat striatum (own knowledge of the cited method)
T2 sequence (P61169 whole entry): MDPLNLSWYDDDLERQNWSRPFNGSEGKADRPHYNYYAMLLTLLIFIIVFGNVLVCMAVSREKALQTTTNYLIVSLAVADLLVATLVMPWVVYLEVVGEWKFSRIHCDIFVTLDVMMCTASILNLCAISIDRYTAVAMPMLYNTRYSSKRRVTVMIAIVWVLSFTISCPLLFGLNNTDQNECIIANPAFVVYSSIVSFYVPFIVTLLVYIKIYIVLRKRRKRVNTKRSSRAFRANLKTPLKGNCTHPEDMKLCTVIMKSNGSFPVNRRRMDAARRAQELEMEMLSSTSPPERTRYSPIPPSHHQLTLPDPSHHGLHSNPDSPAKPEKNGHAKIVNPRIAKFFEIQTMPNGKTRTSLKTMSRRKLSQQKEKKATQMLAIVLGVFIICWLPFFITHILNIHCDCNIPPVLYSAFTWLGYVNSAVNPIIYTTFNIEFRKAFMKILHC
Protocol: as §1

5-HT2A receptors = biological target: T3, 5-HT2A receptors (Rattus norvegicus, UniProt P14842); assay: Conventional binding studies, receptor profile: 5-HT2A; conditions: for Ki: Receptor profile Ki, 5-HT2A; for D2 /5-HT2A: ratio of Ki values D2 / 5-HT2A
T3 construct: from tissue; host or cells: rat frontal cortex (own knowledge of the cited method)
T3 sequence (P14842 whole entry): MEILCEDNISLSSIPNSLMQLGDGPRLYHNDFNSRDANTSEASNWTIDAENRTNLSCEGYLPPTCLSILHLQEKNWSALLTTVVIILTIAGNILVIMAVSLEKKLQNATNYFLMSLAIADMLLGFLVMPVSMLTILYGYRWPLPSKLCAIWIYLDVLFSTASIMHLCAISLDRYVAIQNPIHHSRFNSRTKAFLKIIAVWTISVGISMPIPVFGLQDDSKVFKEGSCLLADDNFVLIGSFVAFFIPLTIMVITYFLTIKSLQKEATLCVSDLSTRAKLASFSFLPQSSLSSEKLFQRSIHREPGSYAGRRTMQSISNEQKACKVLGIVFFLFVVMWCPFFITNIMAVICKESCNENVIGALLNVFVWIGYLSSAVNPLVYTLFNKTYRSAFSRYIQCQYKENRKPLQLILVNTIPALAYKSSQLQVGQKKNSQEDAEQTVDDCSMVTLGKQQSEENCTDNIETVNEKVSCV
Protocol: as §1

in vivo = conditions: rat, sc
[3] = system: mesolimbic dopaminergic pathways; assay: Verticalization test with apomorphine in mice (antipsychotic properties); conditions: for ED50: Mus musculus, sc; for Verticalization (Apomorphine) ID50: mice
[4] = system: nigrostriatal dopaminergic transmission; conditions: background, literature; cited from earlier work
schizophrenia = conditions: cited from earlier work; for extrapyramidal syndrome: in vivo
[5] = system: nigrostriatal dopaminergic transmission; assay: Catalepsy in rats (extrapyramidal potential); conditions: for ED50 /ID50 Ratio: catalepsy ED50 (rats) / verticalization ID50 (mice), hydrochloride
[6] = read-out: Receptor profile Ki, 5-HT1A
[7] = read-out: Receptor profile Ki, D2
[8] = read-out: Verticalization (Apomorphine) ID50, mice, s.c. 30 min before test, apomorphine 0.75 mg/kg s.c.
[9] = read-out: Verticalization (Apomorphine) ID50
[10] = s.c. 30 min before test, apomorphine 0.75 mg/kg s.c., hydrochloride

Sequence of 5-HT1A receptors (P19327 whole entry): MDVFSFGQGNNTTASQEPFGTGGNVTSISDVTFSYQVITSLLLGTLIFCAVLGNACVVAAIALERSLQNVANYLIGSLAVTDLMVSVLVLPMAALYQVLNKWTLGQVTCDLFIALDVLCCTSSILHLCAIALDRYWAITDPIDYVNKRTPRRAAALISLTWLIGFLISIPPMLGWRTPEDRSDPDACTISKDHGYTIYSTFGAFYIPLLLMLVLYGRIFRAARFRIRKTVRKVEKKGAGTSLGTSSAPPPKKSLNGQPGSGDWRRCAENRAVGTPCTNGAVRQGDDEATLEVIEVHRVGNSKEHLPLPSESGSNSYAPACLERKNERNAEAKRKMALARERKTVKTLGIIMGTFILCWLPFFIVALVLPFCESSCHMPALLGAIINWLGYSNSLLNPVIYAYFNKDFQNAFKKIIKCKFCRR

Compound | D2 /5-HT1A (5-HT1A receptors) | Ki (5-HT1A receptors; [6]) [nM] | Ki (5-HT2C receptors [1]) [nM] | D2 /5-HT2C (5-HT2C receptors [2]) | Ki (D2 receptors; [7]) [nM] | Ki (5-HT2A receptors) [nM] | D2 /5-HT2A (5-HT2A receptors) | ED50 at 0.5 h (in vivo) [mg/kg] | selectivity ratio (in vivo) | ED50 [3, 8] [mg/kg] | further results
COc1ccc2[nH]cc(CCCN3CCC(Cc4noc5cc(F)ccc45)C3)c2c1.Cl (centres unmarked) [Ex. 9, 6-Fluoro-3-{1-[3-(5-methoxyindol-3-yl)propyl]pyrrolidin-3-ylmethyl}-1,2-benzisoxazole hydrochloride] | 143 | 0.7 | 7.9 | 13 | 98 | 3.2 | 31 | > 40 | > 40 | 1 | 
COc1ccc2[nH]cc(CCCN3CCC(C(=O)c4ccc(F)cc4)CC3)c2c1.Cl [Ref. A, 3-{3-[4-(4-Fluorobenzoyl)piperidin-1-yl]propyl}-5-methoxyindole hydrochloride, reference compound] | 2 | 5.6 | 98 | 0.1 | 11 | 8.5 | 1.3 | 1.4 | 14 | 0.1 | 
COc1ccc2[nH]cc(CCN3CCC(CC(=O)c4ccc(F)cc4)C3)c2c1.Cl (centres unmarked) [Ex. 1, 3-{2-[3-(4-Fluorobenzoylmethyl)pyrrolidin-1-yl]ethyl}-5-methoxyindole hydrochloride] | 183 |  | 50 | 22 |  | 1.6 | 69 | > 40 | > 129 |  | Ki (5-HT1A receptors; Receptor profile Ki, 5-HT1A): 0.6 nM; Ki (D2 receptors): 110 nM; ED50 [3, 9]: 0.31 mg/kg
COc1ccc2[nH]cc(CCCN3CCCC(C(=O)c4ccc(F)cc4)CC3)c2c1.Cl (centres unmarked) [Ex. 7, 3-{3-[4-(4-Fluorobenzoyl)perhydroazepin-1-yl]propyl}-5-methoxyindole hydrochloride] | 62 | 0.7 | 117 | 0.4 | 43.5 | 2.7 | 1.6 | > 40 | > 80 | 0.5 | 
CN1CCN(C2=Nc3cc(Cl)ccc3Nc3ccccc32)CC1 [Clozapine] |  |  |  |  |  |  |  | > 40 |  |  | cataleptogenic effect [4]: absence of cataleptogenic effect; toxicity (schizophrenia; general treatment of schizophrenic conditions): due to its toxicity, clozapine cannot be envisaged in the general treatment of schizophrenic conditions; extrapyramidal syndrome (schizophrenia): virtually no extrapyramidal syndrome; Verticalization (Apomorphine) ID50 ([3]; s.c. 30 min before test, apomorphine 0.75 mg/kg s.c.): 2.2 mg/kg/S.C.
COc1ccc2[nH]cc(CCCN3CCC(CC(=O)c4ccc(F)cc4)C3)c2c1.Cl (centres unmarked) [Ex. 4, 3-{3-[3-(4-fluorobenzoylmethyl)pyrrolidin-1-yl]propyl}-5-methoxyindole hydrochloride] |  | 1.1 | 4 |  | 6.3 | 1.2 |  | > 40 |  |  | D2 /5-HT1A (5-HT1A receptors; hydrochloride): 5.7; D2 /5-HT2C (5-HT2C receptors [2]; hydrochloride): 1.6; D2 /5-HT2A (5-HT2A receptors; hydrochloride): 5.2; ED50 /ID50 Ratio [5]: > 133; Verticalization (Apomorphine) ID50 [3, 10]: 0.3 mg/kg/S.C.
COc1ccc2c(c1)c(CCN1CCC(CC(=O)c3ccc(F)cc3)C1)cn2C.Cl (centres unmarked) [Ex. 2, 1-Methyl-3-{2-[3-(4-fluorobenzoylmethyl)pyrrolidin-1-yl]ethyl}-5-methoxyindole hydrochloride] | 0.9 | 141 | 16 | 8.3 | 132 | 1.3 | 101 | > 40 | > 32 | 1.25 | 
COc1ccc2c(c1)c(CCCN1CCC(CC(=O)c3ccc(F)cc3)C1)cn2C.Cl (centres unmarked) [Ex. 6, 1-Methyl-3-{3-[3-(4-fluorobenzoylmethyl)pyrrolidin-1-yl]propyl}-5-methoxyindole hydrochloride] | 0.4 | 39 | 17 | 0.9 | 15.4 | 4.3 | 3.6 |  |  |  | 
COc1ccc2[nH]cc(CCCN3CCC(CC(=O)c4ccc(F)cc4)C3)c2c1.Cl (racemic) [Ex. 3, 3-{3-[3-(4-Fluorobenzoylmethyl)pyrrolidin-1-yl]propyl}-5-methoxyindole hydrochloride] | 5.2 | 1 | 3.3 | 1.6 | 5.2 | 1 | 5.2 | > 40 | > 266 | 0.15 | 
O=C(CCCN1CCC(O)(c2ccc(Cl)cc2)CC1)c1ccc(F)cc1 [Haloperidol] |  |  |  |  |  |  |  | 0.14 |  |  | extrapyramidal syndrome (schizophrenia): cause an extrapyramidal syndrome of Parkinsonian type; treatment of productive symptoms (schizophrenia; such as fantasizing and hallucinations): fairly well; effectiveness with respect to deficiency symptoms (schizophrenia; such as social withdrawal): very low; ED50 [3, 9]: 0.01 mg/kg
Cl.O=C(CC1CCN(CCCc2c[nH]c3ccc(F)cc23)C1)c1ccc(F)cc1 (centres unmarked) [Ex. 8, 3-{3-[3-(4-Fluorobenzoylmethyl)pyrrolidin-1-yl]propyl}-5-fluoroindole hydrochloride] | 0.8 | 12.3 | 19 | 0.5 | 9.5 | 6.6 | 1.4 | > 40 | > 80 | 0.5 | 
COc1ccc2[nH]cc(CCCN3CCC(CC(=O)c4ccc(F)cc4)C3)c2c1.Cl (centres unmarked) [Ex. 5, 3-{3-[3-(4-fluorobenzoylmethyl)pyrrolidin-1-yl]propyl}-5-methoxyindole hydrochloride] |  | 0.4 | 3.8 |  | 7.1 | 1.7 |  |  |  |  | D2 /5-HT1A (5-HT1A receptors; hydrochloride): 17.8; D2 /5-HT2C (5-HT2C receptors [2]; hydrochloride): 1.9; D2 /5-HT2A (5-HT2A receptors; hydrochloride): 4.2; ED50 /ID50 Ratio [5]: > 307; Induction of catalepsy ED50 ([5]; rats, s.c. 30 min before test, dose inducing catalepsy for mean 15 seconds): > 40.0 mg/kg/S.C.; Verticalization (Apomorphine) ID50 [3, 10]: 0.13 mg/kg/S.C.
